Measurements as given in PubChem BioAssay AID463203 (Broad Institute, 2010).
The source made the active and inactive calls.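 The calls were made as follows: active = more than half of replicate measurements showing over 20% loss of kinase signal relative to plate controls; inconclusive = some but at most half of replicates over 20% loss; inactive = no replicate over 20% signal loss.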

target: Glycogen synthase kinase-3 alpha (Homo sapiens) (UniProt P49840); assay: concentration-response blocking of human GSK3A – biochemical, luminescence, cell-free homogeneous, retest, dose response (AID 463203); conditions: GSK-3 alpha enzyme, ADP-Glo luminescence, 60 min
Sequence (P49840 whole entry, looked up): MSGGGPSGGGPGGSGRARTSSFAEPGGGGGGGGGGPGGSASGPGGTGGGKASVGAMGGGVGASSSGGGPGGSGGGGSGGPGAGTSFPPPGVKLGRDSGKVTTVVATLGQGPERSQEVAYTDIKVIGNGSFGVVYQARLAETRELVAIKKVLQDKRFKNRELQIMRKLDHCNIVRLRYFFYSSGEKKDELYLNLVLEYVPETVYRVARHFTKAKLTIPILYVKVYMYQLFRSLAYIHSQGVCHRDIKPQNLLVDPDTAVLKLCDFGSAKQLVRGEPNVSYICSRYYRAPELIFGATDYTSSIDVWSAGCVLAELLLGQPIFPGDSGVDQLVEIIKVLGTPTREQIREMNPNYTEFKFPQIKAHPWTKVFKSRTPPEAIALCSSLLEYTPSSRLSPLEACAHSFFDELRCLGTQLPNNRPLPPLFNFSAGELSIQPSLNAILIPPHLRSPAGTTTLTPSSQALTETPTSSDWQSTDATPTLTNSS

Row | SMILES | AC50
1 | Cc1c(O)ccc2c3c(c(=O)oc12)CCCC3 | 6.63 µM
2 | Nc1nc(NCCc2ccccc2)nc(NCc2ccccc2)c1[N+](=O)[O-] | 1.66 µM
3 | Fc1ccc(-c2nnc3ccc(N4CCCC4)nn23)cc1 | 5.64 µM
4 | Nn1c(-c2ccc(O)cc2)nnc1-c1ccc(O)cc1 | > 30 µM (inactive)
5 | CC(C)NC(=O)c1sc2nc3c(c(-c4cccs4)c2c1N)CN(C)CC3 | > 30 µM (inactive)
6 | O=C(CSc1n[nH]c(=O)n1-c1ccc2c(c1)OCCO2)Nc1ccccc1 | > 30 µM (inactive)
7 | CCOC(=O)CCc1c(C)c2ccc(O)cc2oc1=O | > 30 µM (inactive)
8 | CC(C)Cn1nc(NC(=O)C2CCCO2)c2cc3ccccc3nc21 (centres undefined) | > 30 µM (inactive)
9 | CCOC(=O)C1CCCN(c2c(C(=O)c3ccccc3)cnc3ccccc23)C1 (centres undefined) | > 30 µM (inactive)
10 | O=c1c(O)cccc2cc(O)c(O)c(O)c12 | 21.1 µM
11 | COC(=O)C1CSc2[nH]c(=O)sc2C1c1ccc(O)c(OC)c1 (centres undefined) | > 30 µM (inactive)
12 | CC(=O)Nc1ccc(S(=O)(=O)NC(C)c2ccncc2)cc1 (centres undefined) | > 30 µM (inactive)
13 | Cc1cc(OC(=O)c2c(C)cc(O)cc2O)cc(O)c1C(=O)O | 27.8 µM
14 | CN1CCN(Cc2c(C(=O)N/N=C/c3cccc(Br)c3)nnn2-c2nonc2N)CC1 | 20.2 µM
15 | CCOC(=O)c1nnn(-c2nonc2N)c1-c1cccc2ccccc12 | 27.9 µM
16 | C/C(=N\NC(=O)c1nnn(-c2nonc2N)c1CN(C)c1ccccc1)c1ccc(O)cc1 | > 30 µM (inactive)
17 | COc1ccc(CCn2cnc(=O)c(C#N)c2C)cc1OC | > 30 µM (inactive)
18 | COc1ccc(C(=O)c2c(C(F)(F)F)oc3c2C(=O)c2ccccc2C3=O)cc1 | > 30 µM (inactive)
19 | O=C(c1ccc2c3n(nc2c1)-c1ccc(Cl)cc1CO3)N1CCOCC1 | > 30 µM (inactive)
20 | CCCCOC(=O)CNc1n[nH]c(=S)[nH]c1=O | > 30 µM (inactive)
21 | COc1cc(C2c3sc(=O)[nH]c3SC3C(=O)N(c4ccc(Br)cc4)C(=O)C32)ccc1O (centres undefined) | > 30 µM (inactive)
22 | S=C(Nc1ccccc1)Nc1ccc2cn[nH]c2c1 | 24.9 µM
23 | CCN1C(=O)C(=C/C=C/c2ccco2)C(=O)N(CC)C1=S | > 30 µM (inactive)
24 | Cc1cc(C(=O)N/N=C/c2cc(N=Nc3ccccc3)ccc2O)n[nH]1 | > 30 µM (inactive)
25 | C=CCn1c(O)c(C=NC2CCN(Cc3ccccc3)CC2)c(=O)[nH]c1=O | > 30 µM (inactive)
26 | Clc1nccnc1N/N=C/c1ccc(Br)cc1 | > 30 µM (inactive)

Row | SMILES | AC50
27 | Cc1ccc2nc(-c3ccccc3N)[nH]c2c1 | > 30 µM (inactive)
28 | CCC(=N\NC(=O)COc1ccccc1OC)/C(CC)=N/NC(=O)COc1ccccc1OC | > 30 µM (inactive)
29 | O=[N+]([O-])c1ccc(O)c(CN2CCCCCC2)c1 | > 30 µM (inactive)
30 | CC1CCCC(C)N1C(=O)COC(=O)Cc1c[nH]c2ccccc12 (centres undefined) | > 30 µM (inactive)
31 | CCOC(=O)/C(C#N)=C1/SC(CCO)C(=O)N1c1ccccc1 (centres undefined) | 13.1 µM
32 | CC(=O)Nc1ccc(NC(=O)CSc2nc3[nH]ncc3c(=O)n2-c2ccccc2)cc1 | > 30 µM (inactive)
33 | Cc1csc(NC(=O)C2CC(=O)N(c3ccc4c(c3)OCCO4)C2)n1 (centres undefined) | > 30 µM (inactive)
34 | N#C/C(=N\Nc1ccccc1)C(N)=S | > 30 µM (inactive)
35 | COc1cc(/C=C2\S/C(=N/S(=O)(=O)Cc3ccccc3)NC2=O)c([N+](=O)[O-])cc1OC | > 30 µM (inactive)
36 | Cc1ccc2c(c1)COc1c3ccc(C(=O)N4CCCCC4)cc3nn1-2 | > 30 µM (inactive)
37 | CCOC(=O)c1nc(NCc2cccnc2)c2ccccc2n1 | > 30 µM (inactive)
38 | CC(=O)c1cnc(Nc2ccccc2)s1 | 20.2 µM
39 | CCCOC(=O)c1[nH]c2c(c1C)C(=O)CC(c1cc(OC)c(OC)c(OC)c1)C2 (centres undefined) | > 30 µM (inactive)
40 | Cc1ccc2nc(-c3ccccn3)[nH]c2c1 | > 30 µM (inactive)
41 | Cc1ccc(-c2nc3n(n2)Cc2ccccc2-3)cc1 | > 30 µM (inactive)
42 | O=C1C(SCCO)=C(SCCO)C(=O)c2ccccc21 | > 30 µM (inactive)
43 | O=[N+]([O-])c1ccc(Nc2nc(Cl)nc(NCCO)n2)cc1 | > 30 µM (inactive)
44 | O=C(Nc1cccc(Cl)c1N1CCCC1)c1ccc(Br)o1 | > 30 µM (inactive)
45 | Cc1cc(N2CCN(c3ccccc3)CC2)n2c(n1)nc1ccccc12 | 4.33 µM
46 | COc1ccc2nc(C)cc(N3CCN(S(=O)(=O)c4ccccc4F)CC3)c2c1 | 8.27 µM
47 | O=c1[nH]c(=O)n(CCC2=CCCCC2)c(O)c1C=NCCCn1ccnc1 | 28.6 µM
48 | O=C(CSCc1ccc([N+](=O)[O-])cc1)N/N=C/c1cccnc1 | > 30 µM (inactive)
49 | COc1ccc(OCC(=O)N/N=C/c2ccc(N(C)C)cc2)cc1 | > 30 µM (inactive)
50 | CCCCN(CCCC)c1cn[nH]c(=O)c1Cl | 11.2 µM
51 | O=c1[nH]c(=O)n(Cc2ccco2)c(O)c1/C=N/N1CCCCC1 | > 30 µM (inactive)
52 | COC(=O)C1=C(C)Nc2[nH]c(=S)[nH]c(=O)c2C1c1ccc(O)cc1 (centres undefined) | > 30 µM (inactive)

Row | SMILES | AC50
53 | COc1cc(/C=N/NC(=O)c2cccc(C(=O)N/N=C/c3ccc(O)c(OC)c3)n2)ccc1O | > 30 µM (inactive)
54 | CCOc1ccc(NC(=O)N(C2CCCCC2)C(C)c2cccnc2)cc1 (centres undefined) | > 30 µM (inactive)
55 | c1nc(NC2CCCCCC2)c2[nH]cnc2n1 | 29.8 µM
56 | COc1ccc(OCC(=O)Nc2ccc3c(c2)C(=O)NC3=O)cc1 | 12.2 µM
57 | O=C(COC(=O)c1cccc(S(=O)(=O)N2CCOCC2)c1)Nc1ncc(Cl)cc1Cl | > 30 µM (inactive)
58 | NC(=O)c1sc2nc3c(c(-c4ccco4)c2c1N)CCCC3 | 13.6 µM
59 | N#Cc1cc(Cl)c(NCC2CCCO2)cc1C#N (centres undefined) | > 30 µM (inactive)
60 | O=C(CSc1nnc(SCc2ccc(Cl)cc2)s1)N/N=C/c1ccccc1C(=O)O | > 30 µM (inactive)
61 | CCOc1ccccc1NC(=O)Nc1ccc(Cl)cc1 | > 30 µM (inactive)
62 | Cn1cnnc1SCC(=O)Nc1ncc([N+](=O)[O-])s1 | > 30 µM (inactive)
63 | CC(=O)c1cc(-c2ccc(F)cc2)n(CCC(=O)Nc2cccnc2)c1C | > 30 µM (inactive)
64 | Cc1sc2ncnc(NCc3cccs3)c2c1C | > 30 µM (inactive)
65 | O=C(CSc1cccc2cccnc12)N/N=C/c1ccc(O)cc1 | > 30 µM (inactive)
66 | O=C1c2cnc3ncnn3c2CC2c3ccccc3CCN12 (centres undefined) | > 30 µM (inactive)
67 | Cc1cc(/C=N\NC(=O)c2cccs2)c(C)n1-c1ccc2ncccc2c1 | > 30 µM (inactive)
68 | COc1ccc(OCC(=O)N2CCN(c3nnc(-c4ccc(C)cc4)c4ccccc34)CC2)cc1 | > 30 µM (inactive)
69 | O=C(CSc1nc2ccccc2c(=O)n1-c1ccc(F)cc1F)c1c[nH]c2ccccc12 | > 30 µM (inactive)
70 | COc1cccc2c1C(=O)O/C2=C/c1ccc2c(c1)OCO2 | > 30 µM (inactive)
71 | COc1cccc(NC(=O)c2cnc[nH]2)c1 | > 30 µM (inactive)
72 | Cc1ccc(-c2nc3ncccn3c2Nc2ccc3c(c2)OCCO3)cc1 | > 30 µM (inactive)
73 | Cc1nc(SCC(=O)Nc2nc3ccccc3s2)n[nH]1 | > 30 µM (inactive)
74 | N#C/C(=N\Nc1cccc(F)c1)C(=O)C1CC1 | > 30 µM (inactive)
75 | CCCCc1ccc(NC(=O)N[C@@H](CC(C)C)C(=O)O)cc1 | > 10 µM (inactive)
76 | CCOC(=O)c1cnc2c(Cl)c(Cl)ccc2c1N1CCN(C)CC1 | > 30 µM (inactive)
77 | Cc1ccc(C2C(C#N)=C(N)Oc3n[nH]c(-c4cccnc4)c32)o1 (centres undefined) | > 30 µM (inactive)
78 | COc1ccc(CNC(=O)CN(CC2CCCO2)C(=O)CNS(=O)(=O)c2ccccc2)cc1 (centres undefined) | > 30 µM (inactive)

Row | SMILES | AC50
79 | CCCCC(=O)Nc1nn(CC)c2nc3c(C)cccc3cc12 | > 30 µM (inactive)
80 | CCc1cc(C(=O)OC)c(NC(=O)CN2CCN(C(=O)c3ccco3)CC2)s1 | > 30 µM (inactive)
81 | S=C(NCCc1ccccc1)Nc1cccc2cnccc12 | > 30 µM (inactive)
82 | COc1cc(-c2[nH]nc3c2C(c2ccoc2)C(C#N)=C(N)O3)cc(OC)c1OC (centres undefined) | 26.1 µM
83 | CC(=O)N(C)c1ccc(N=Cc2cc3c(cc2[N+](=O)[O-])OCO3)cc1 | 21.2 µM
84 | Cc1ccc2c(c1)N(CCC(=O)NC(C)C)C(=O)CO2 | > 30 µM (inactive)
85 | COc1ccc(-c2cc(C(F)(F)F)nc(SCCC(=O)NCc3ccccc3)n2)cc1 | > 30 µM (inactive)
86 | Cc1cc(NC(=O)CCSc2nc(-c3ccco3)cc(C(F)(F)F)n2)n(-c2ccccc2)n1 | > 30 µM (inactive)
87 | CCOc1ccc(Nc2nc(NCc3ccco3)nc(N)c2[N+](=O)[O-])cc1 | > 30 µM (inactive)
88 | Cc1nc2ncnn2c(C)c1Cc1cccc(F)c1 | > 30 µM (inactive)
89 | O=C(Nc1nc2c(s1)CCCC2)c1ccc(Br)s1 | > 30 µM (inactive)
90 | O=C(COC(=O)c1cc([N+](=O)[O-])ccc1N1CCOCC1)Nc1ccc(Cl)cn1 | 4.79 µM
91 | O=C(O)c1ccc2c(c1Nc1ccccc1)C(=O)c1ccccc1C2=O | 18.6 µM
92 | CCOC(=O)c1cc(CC)sc1NC(=O)CN1CCN(C(=O)c2ccco2)CC1 | > 30 µM (inactive)
93 | Nc1c(O)ccc2c1C(=O)c1ccccc1C2=O | 18.7 µM
94 | Cc1ccc(S(=O)(=O)N(CC(O)CN2CCCCC2)c2ccccc2)cc1 (centres undefined) | > 30 µM (inactive)
95 | Cc1ccc(S(=O)(=O)N2CCN(CC(=O)N/N=C\c3ccccn3)CC2)cc1 | > 30 µM (inactive)
96 | CC(C)CCSc1cc(NCCO)c([N+](=O)[O-])c2nonc12 | > 30 µM (inactive)
97 | c1ccc2[nH]c(-c3ccncc3)nc2c1 | > 30 µM (inactive)
98 | Cc1c(Nc2ncccc2C(=O)O)cccc1C(F)(F)F | > 30 µM (inactive)
99 | Cc1cccc(-n2nc(C)c3c2NC2=C(C(=O)CCC2)C3c2ccccn2)c1 (centres undefined) | > 30 µM (inactive)
100 | COc1cc2c(cc1OC)-c1nnc(C)n1C1(CCCC1)C2 | 30.2 µM
101 | O=C1CCCC2=C1C(c1ccc(O)cc1)c1c(ccc3ccccc13)N2 (centres undefined) | > 30 µM (inactive)
102 | COc1ccc(C(=O)O/N=C(\N)c2ccccc2)cc1 | 25 µM
103 | O=C(COc1ccccc1Cl)Nc1ccc(Cl)cn1 | > 30 µM (inactive)
104 | COc1cc(SC)ccc1C(=O)Nc1nc(C)cc(C)n1 | > 30 µM (inactive)
